Assay results from patent US8541584B2, “3-(1,2,3-triazol-4-yl) pyrrolo [2,3-b] pyridine derivatives” (Merck Patent GmbH, priority 2009, dated 2013).

Legend:
PDK1 = target: T1, PDK1 (Homo sapiens, UniProt O15530); assay: Test for the inhibition of PDK1 (384-well flashplate, 33P-ATP); assay type: biochemical; details: His6-PDK1 3.4 nM, 4 μM ATP, 30° C., 60 min
T1 construct: His6 (N)
T1 sequence (O15530 51-556 limits assumed): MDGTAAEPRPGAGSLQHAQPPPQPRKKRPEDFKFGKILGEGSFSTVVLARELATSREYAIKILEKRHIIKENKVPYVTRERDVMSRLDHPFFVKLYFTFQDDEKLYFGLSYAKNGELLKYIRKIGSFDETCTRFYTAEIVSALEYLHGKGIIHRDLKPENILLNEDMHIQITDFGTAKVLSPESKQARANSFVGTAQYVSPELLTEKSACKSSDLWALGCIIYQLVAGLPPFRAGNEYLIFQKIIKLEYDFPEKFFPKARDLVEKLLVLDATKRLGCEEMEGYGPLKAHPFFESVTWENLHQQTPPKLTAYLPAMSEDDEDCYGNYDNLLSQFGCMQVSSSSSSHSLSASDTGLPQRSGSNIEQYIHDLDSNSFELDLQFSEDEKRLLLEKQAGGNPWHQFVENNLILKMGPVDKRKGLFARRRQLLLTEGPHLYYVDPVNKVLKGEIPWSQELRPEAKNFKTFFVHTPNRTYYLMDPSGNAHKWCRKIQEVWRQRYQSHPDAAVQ
Procedure: 4.0 Test for the Inhibition of PDK1
The experimental batches are carried out in a flashplate system with 384 wells/microtitration plate.
In each case, the PDK1 sample His6-PDK1(1-50)(3.4 nM), the PDK1 substrate biotin-bA-bA-[…] (400 nM), 4 μM ATP (with 0.2 μCi of ^33P-ATP/well) and the test substance in 50 μl of conventional experimental solution per well are incubated at 30° C. for 60 min. The test substances are employed in corresponding concentrations (if desired in a dilution series). The control is carried out without test substance. The reaction is stopped using standard methods and washed. The activity of the kinase is measured via the incorporated radioactivity in top count. In order to determine the non-specific kinase reaction (blank value), the experimental batches are carried out in the presence of 100 nM staurosporin.
The radioactivity (decompositions per minute) of the blank value (no use of test substance in the presence of staurosporin) is subtracted from all other radioactivity values. The controls (kinase activity without test substance) are set equal to 100 percent and all other radioactivity values (after subtracting the blank value) are expressed set in relation thereto (for example in % of the control).
IC50 values (50% inhibition) are determined with the aid of statistics programmes, such as, for example, RS1.

[1] = tested on: PDK1 kinase activity (P-T308-PKB) in PC3 cells; assay: Cellular testing of PDK1 kinase inhibitors (Luminex assay, P-T308-PKB in PC3 cells); assay type: cell-based; details: Homo sapiens, PC-3, 0.5 h, serum-free, 30 min with test substance
Procedure: Description of the Method for Cellular Testing of PDK1 Kinase Inhibitors
The cellular assay for determination of the PDK1 kinase activity is performed as Luminex assay in the 96-well format. PC3 cells are sown at 20,000 cells per well in 100 μl of medium (45% of […]/45% of Ham's F12/10% of FCS) and incubated under serum-free conditions on the following day for 30 min with serial dilution of the test substance (7 concentrations). The cells are subsequently lysed using 90 μl of lysis buffer (20 mM Tris/HCl pH 8.0, 150 mM NaCl, 1% of NP40, 10% of glycerol, 1% of phosphatase inhibitor I, 1% of phosphatase inhibitor II, 0.1% of protease inhibitor Cocktail III, 0.01% of benzonase) per well, and the lysates are separated off from insoluble cell constituents by means of centrifugation through a 96-well filter plate (0.65 μm). The lysates are incubated overnight at 4° C. with shaking with Luminex beads to which an anti-total PKB antibody has been coupled. Detection is carried out on the following day by addition of a P-T308-PKB antibody and a species-specific PE-labelled secondary antibody. The determination of P-T308-PKB is carried out by measurement in the Luminex100 instrument by determination of 100 events per cavity in a measurement time of 60 sec. As pharmacological blank, the signals obtained from cells which have been treated with 10 μM staurosporin are subtracted from all other batches. The control value used for maximum phosphorylation of PKB on T308 are the signals from cells which have been treated only with the solvent (0.3% of DMSO). The values of the batches treated with test substance are calculated from this as percent of control, and IC50 values are determined by means of RS1.

[2] = target: T2, TANK binding kinase (TBK1) (Homo sapiens, UniProt Q9UHD2); assay: TBK1 kinase test (384-well flashplate); assay type: biochemical; details: 0.6 nM TBK1, 10 μM ATP, 30° C., 120 min
T2 sequence (Q9UHD2 1-729): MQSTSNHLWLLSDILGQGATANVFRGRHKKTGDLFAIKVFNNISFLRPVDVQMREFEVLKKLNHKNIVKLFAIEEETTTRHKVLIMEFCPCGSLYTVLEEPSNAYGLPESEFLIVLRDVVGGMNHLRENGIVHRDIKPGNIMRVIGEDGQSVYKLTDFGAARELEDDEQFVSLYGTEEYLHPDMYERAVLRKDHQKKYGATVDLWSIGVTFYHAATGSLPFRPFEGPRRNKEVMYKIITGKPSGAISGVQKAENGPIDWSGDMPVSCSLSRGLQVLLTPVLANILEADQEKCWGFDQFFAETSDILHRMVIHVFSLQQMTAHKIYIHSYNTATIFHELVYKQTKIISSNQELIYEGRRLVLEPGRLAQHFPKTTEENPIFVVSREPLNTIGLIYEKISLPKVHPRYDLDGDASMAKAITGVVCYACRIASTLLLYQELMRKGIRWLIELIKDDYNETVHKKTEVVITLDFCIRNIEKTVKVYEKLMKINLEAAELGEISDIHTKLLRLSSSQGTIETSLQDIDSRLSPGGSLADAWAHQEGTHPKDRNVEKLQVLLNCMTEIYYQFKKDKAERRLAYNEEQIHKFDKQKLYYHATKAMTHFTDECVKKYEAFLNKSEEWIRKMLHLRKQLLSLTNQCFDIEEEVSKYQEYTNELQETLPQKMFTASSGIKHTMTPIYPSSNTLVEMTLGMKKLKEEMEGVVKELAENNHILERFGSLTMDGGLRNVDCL
Procedure: The kinase assay is performed as 384-well flashplate assay. 0.6 nM TANK binding kinase (TBK1), 800 nM biotinylated MELK-derived peptide (biotin-Ah-Ah-[…]) and 10 μM ATP (with 0.25 μCi of ^33P-ATP/well) are incubated in a total volume of 50 μl (10 mM MOPS, 10 mM magnesium acetate, 0.1 mM EGTA, 1 mM DTT, 0.02% of Brij35, 0.1% of BSA, pH 7.5) with or without test substance at 30° C. for 120 min. The reaction is stopped using 25 μl of 200 mM EDTA solution, filtered off with suction after 30 min at room temperature, and the wells are washed 3 times with 100 μl of 0.9% NaCl solution. The non-specific proportion of the kinase reaction (blank) is determined using 100 nM staurosporine. Radioactivity is measured in the Topcount. IC50 values are calculated using RS1.

SMILES	IC50 (PDK1) [nM]	IC50 [1] [nM]	IC50 [2] [nM]
Cc1cccc(Cn2cc(-c3c[nH]c4ncc(-c5cnn(C)c5)cc34)nn2)c1 [Compound A7, 3-[1-(3-Methylbenzyl)-1H-1,2,3-triazol-4-yl]-5-(1-methyl-1H-pyrazol-4-yl)-1H-pyrrolo[2,3-b]pyridine]	0.5 to 1000	1000 to 10000	0.5 to 1000
Cn1cc(-c2cnc3[nH]cc(-c4cn(Cc5ccccc5F)nn4)c3c2)cn1 [Compound A17, 3-[1-(2-Fluorobenzyl)-1H-1,2,3-triazol-4-yl]-5-(1-methyl-1H-pyrazol-4-yl)-1H-pyrrolo-[2,3-b]pyridine]	0.5 to 1000	0.5 to 1000	0.5 to 1000
Cn1cc(-c2cnc3[nH]cc(-c4cn(Cc5ccncc5)nn4)c3c2)cn1 [Compound A9, 5-(1-Methyl-1H-pyrazol-4-yl)-3-(1-pyridin-4-ylmethyl-1H-1,2,3-triazol-4-yl)-1H-pyrrolo-[2,3-b]pyridine]	0.5 to 1000	1000 to 10000	0.5 to 1000

The next lines start with the values.

IC50 (PDK1) [nM]	IC50 [1] [nM]	IC50 [2] [nM]	SMILES
0.5 to 1000	1000 to 10000	0.5 to 1000	CC(c1ccccc1C(F)(F)F)n1cc(-c2c[nH]c3ncc(-c4cnn(C)c4)cc23)nn1 (stereo not drawn) [Compound A20, 5-(1-Methyl-1H-pyrazol-4-yl)-3-{1-[1-(2-trifluoromethylphenyl)ethyl]-1H-1,2,3-triazol-4-yl}-1H-pyrrolo[2,3-b]pyridine]
0.5 to 1000	0.5 to 1000	0.5 to 1000	Cn1cc(-c2cnc3[nH]cc(-c4cn(Cc5cccc(F)c5F)nn4)c3c2)cn1 [Compound A25, 3-[1-(2,3-Difluorobenzyl)-1H-1,2,3-triazol-4-yl]-5-(1-methyl-1H-pyrazol-4-yl)-1H-pyrrolo-[2,3-b]pyridine]
0.5 to 1000	1000 to 10000	0.5 to 1000	Cn1cc(-c2cnc3[nH]cc(-c4cn(Cc5ccc6ncccc6c5)nn4)c3c2)cn1 [Compound A29, 6-{4-[5-(1-Methyl-1H-pyrazol-4-yl)-1H-pyrrolo[2,3-b]pyridin-3-yl]-1,2,3-triazol-1-ylmethyl}quinoline]
